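Five concentrations, 48 hours, 96-well plates. GI50: concentration for 50% inhibition of growth. TGI: total growth inhibition.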
Experiments:
Assay in all cases: growth of human tumour cells (NCI), 48 h
CAKI-1 renal = test system: CAKI-1 renal
A549 NSCLC = test system: A549 NSCLC
NCI-H460 lung = test system: NCI-H460 lung
RXF 393 renal = test system: RXF 393 renal
KM12 colon = test system: KM12 colon
MALME-3M melanoma = test system: MALME-3M melanoma
HL-60(TB) leukemia = test system: HL-60(TB) leukemia
NCI-H23 lung = test system: NCI-H23 lung

In the case of `CC(C)c1c(C(=O)Nc2ccccc2)c(-c2ccccc2)c(-c2ccc(F)cc2)n1CC[C@@H](O)C[C@@H](O)CC(=O)O`, the GI50 (CAKI-1 renal) is reported as 11.9 µM, the TGI (CAKI-1 renal) is reported as 32.8 µM and the GI50 (A549 NSCLC) is reported as 56.5 µM. The TGI (A549 NSCLC) was > 100 µM, the GI50 (NCI-H460 lung) was 41.3 µM and the TGI (NCI-H460 lung) was > 100 µM. For the same molecule, the GI50 (RXF 393 renal) was 8.75 µM, the TGI (RXF 393 renal) was 47.2 µM and the GI50 (KM12 colon) was 40.2 µM. The TGI (KM12 colon) was > 100 µM, the GI50 (MALME-3M melanoma) was 52.8 µM and the TGI (MALME-3M melanoma) was > 100 µM. For the same molecule, the GI50 (HL-60(TB) leukemia) was 20.9 µM, the TGI (HL-60(TB) leukemia) was > 96.7 µM and the GI50 (NCI-H23 lung) was 31 µM. The TGI (NCI-H23 lung) was > 100 µM.

Molecule `COc1cccc(-c2cc(-c3ccc(Nc4nc(Nc5ccc(Cl)cc5)nc(Nc5ccc(Cl)cc5)n4)cc3)nc(N)c2C#N)c1` has a GI50 (CAKI-1 renal) of 1.23 µM, a TGI (CAKI-1 renal) of 5.09 µM and a GI50 (A549 NSCLC) of 9.41 µM. The TGI (A549 NSCLC) was > 100 µM, the GI50 (NCI-H460 lung) was 3.74 µM and the TGI (NCI-H460 lung) was 24.4 µM. The GI50 (RXF 393 renal) was 1.44 µM, the TGI (RXF 393 renal) was 3.68 µM and the GI50 (KM12 colon) was 2.35 µM. For the same molecule, the TGI (KM12 colon) was 11.1 µM, the GI50 (MALME-3M melanoma) was 1.69 µM and the TGI (MALME-3M melanoma) was 3.45 µM. For the same molecule, the GI50 (HL-60(TB) leukemia) was 0.838 µM, the TGI (HL-60(TB) leukemia) was 8.23 µM and the GI50 (NCI-H23 lung) was 3.59 µM. For the same molecule, the TGI (NCI-H23 lung) was > 54 µM.

`N=C(N)c1ccc(-c2ccc(-c3cccs3)s2)cc1F` was tested, and the GI50 (CAKI-1 renal) was 1.37 µM, the TGI (CAKI-1 renal) was 2.82 µM and the GI50 (A549 NSCLC) was 0.0305 µM. It also gave a TGI (A549 NSCLC) of 1.27 µM, a GI50 (NCI-H460 lung) of 0.0436 µM and a TGI (NCI-H460 lung) of 1.05 µM. For the same molecule, the GI50 (RXF 393 renal) was 1.25 µM, the TGI (RXF 393 renal) was 2.64 µM and the GI50 (KM12 colon) was 1.01 µM. For the same molecule, the TGI (KM12 colon) was 2.38 µM, the GI50 (MALME-3M melanoma) was 2.28 µM and the TGI (MALME-3M melanoma) was 4.48 µM. For the same molecule, the GI50 (HL-60(TB) leukemia) was 1.79 µM, the TGI (HL-60(TB) leukemia) was 3.83 µM and the GI50 (NCI-H23 lung) was 1.63 µM. The TGI (NCI-H23 lung) was 3.27 µM.

For `COc1ncc(-c2ccc3nc(N)n(-c4ccccc4C(F)(F)F)c(=O)c3c2)cc1S(=O)(=O)Nc1ccc(F)cc1F`, the GI50 (CAKI-1 renal) was 0.122 µM, the TGI (CAKI-1 renal) was > 100 µM and the GI50 (A549 NSCLC) was 0.653 µM. For the same molecule, the TGI (A549 NSCLC) was > 100 µM, the GI50 (NCI-H460 lung) was 5.03 µM and the TGI (NCI-H460 lung) was 36.6 µM. The GI50 (RXF 393 renal) was 0.099 µM, the TGI (RXF 393 renal) was 4.46 µM and the GI50 (KM12 colon) was 1.06 µM. For the same molecule, the TGI (KM12 colon) was 12.2 µM, the GI50 (MALME-3M melanoma) was 6.53 µM and the TGI (MALME-3M melanoma) was 34.4 µM. For the same molecule, the GI50 (HL-60(TB) leukemia) was 1.42 µM, the TGI (HL-60(TB) leukemia) was 5.24 µM and the GI50 (NCI-H23 lung) was 0.693 µM. The TGI (NCI-H23 lung) was 38.1 µM.

In the case of `CC1(C)N=C(N)N=C(N)N1c1cccc(CC(=O)Nc2ccccc2)c1`, the GI50 (CAKI-1 renal) is reported as > 100 µM, the TGI (CAKI-1 renal) is reported as > 100 µM and the GI50 (A549 NSCLC) is reported as 3.54 µM. For the same molecule, the TGI (A549 NSCLC) was > 100 µM, the GI50 (NCI-H460 lung) was 3.63 µM and the TGI (NCI-H460 lung) was > 100 µM. For the same molecule, the GI50 (RXF 393 renal) was > 100 µM, the TGI (RXF 393 renal) was > 100 µM and the GI50 (KM12 colon) was 15.1 µM. For the same molecule, the TGI (KM12 colon) was > 100 µM, the GI50 (MALME-3M melanoma) was 58.6 µM and the TGI (MALME-3M melanoma) was > 100 µM. For the same molecule, the GI50 (HL-60(TB) leukemia) was 6 µM, the TGI (HL-60(TB) leukemia) was > 100 µM and the GI50 (NCI-H23 lung) was 14.8 µM. For the same molecule, the TGI (NCI-H23 lung) was > 100 µM.

`Cc1ccc(CNc2ccc(Cl)cc2NCc2ccc(C)c(O)c2)cc1O` was tested, and the GI50 (CAKI-1 renal) was 7.39 µM, the TGI (CAKI-1 renal) was 14 µM and the GI50 (A549 NSCLC) was 8.13 µM. The TGI (A549 NSCLC) was 15.3 µM, the GI50 (NCI-H460 lung) was 8 µM and the TGI (NCI-H460 lung) was 15.9 µM. For the same molecule, the GI50 (RXF 393 renal) was 7.5 µM, the TGI (RXF 393 renal) was 14.5 µM and the GI50 (KM12 colon) was 6.52 µM. It also gave a TGI (KM12 colon) of 13.8 µM, a GI50 (MALME-3M melanoma) of 6.2 µM and a TGI (MALME-3M melanoma) of 14.7 µM. It also gave a GI50 (HL-60(TB) leukemia) of 7.65 µM, a TGI (HL-60(TB) leukemia) of 19.2 µM and a GI50 (NCI-H23 lung) of 7.33 µM. For the same molecule, the TGI (NCI-H23 lung) was 14.8 µM.

With `CC1(C)CC[C@]2(C(=O)O)CC[C@]3(C)C(=CC[C@@H]4[C@@]5(C)C/C(=C/c6cccnc6)[C@H](O)C(C)(C)[C@@H]5CC[C@]43C)[C@@H]2C1` the GI50 (CAKI-1 renal) was 10.2 µM, the TGI (CAKI-1 renal) was > 100 µM and the GI50 (A549 NSCLC) was 3.65 µM. The TGI (A549 NSCLC) was > 100 µM, the GI50 (NCI-H460 lung) was 4.14 µM and the TGI (NCI-H460 lung) was 26.4 µM. It also gave a GI50 (RXF 393 renal) of 7.28 µM, a TGI (RXF 393 renal) of 36.6 µM and a GI50 (KM12 colon) of 4.58 µM. The TGI (KM12 colon) was 32.7 µM, the GI50 (MALME-3M melanoma) was 13.4 µM and the TGI (MALME-3M melanoma) was 36.2 µM. For the same molecule, the GI50 (HL-60(TB) leukemia) was 2.12 µM, the TGI (HL-60(TB) leukemia) was 5.94 µM and the GI50 (NCI-H23 lung) was 9.64 µM. The TGI (NCI-H23 lung) was > 100 µM.

Source: PubChem BioAssay (NCI)
